Reference: PubChem BioAssay AID743119 (The Scripps Research Institute Molecular Screening Center, 2013)
pIC50: −log10 of the molar value.

Assays:
[1] = target: Acyl-protein thioesterase 1 (Homo sapiens) (UniProt O75608); experiment: in situ APT1/APT2 inhibitor potency by ABPP – HeLa cells, in situ treatment, fluorescence gel, late-stage follow-up (AID 743119); details: gel-based ABPP FP-Rh fluorescence, LYPLA1
[2] = target: Acyl-protein thioesterase 2 (Homo sapiens) (UniProt O95372); experiment: as above; details: gel-based ABPP FP-Rh fluorescence, LYPLA2
Chain of Acyl-protein thioesterase 2 (Homo sapiens) (O95372 whole entry, looked up): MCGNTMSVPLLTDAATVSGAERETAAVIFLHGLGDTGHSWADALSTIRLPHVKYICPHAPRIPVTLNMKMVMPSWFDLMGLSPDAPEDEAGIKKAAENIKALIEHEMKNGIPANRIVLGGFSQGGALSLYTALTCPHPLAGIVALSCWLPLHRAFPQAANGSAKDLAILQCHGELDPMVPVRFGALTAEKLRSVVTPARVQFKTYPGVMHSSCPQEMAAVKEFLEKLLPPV

Chain of Acyl-protein thioesterase 1 (Homo sapiens) (O75608 whole entry, looked up): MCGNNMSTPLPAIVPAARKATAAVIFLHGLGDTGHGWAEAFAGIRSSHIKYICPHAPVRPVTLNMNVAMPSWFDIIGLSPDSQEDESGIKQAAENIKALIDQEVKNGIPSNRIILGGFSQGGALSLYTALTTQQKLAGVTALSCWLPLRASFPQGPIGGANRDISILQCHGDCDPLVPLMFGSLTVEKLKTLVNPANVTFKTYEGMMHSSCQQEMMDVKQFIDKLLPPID

pIC50 [1]: 7.06
pIC50 [2]: 6.84
Structure (SMILES): O=C(ON1C(=O)C2CN(C(=O)N3CCOCC3)CCN2C1=O)N1CCC(CCc2ccc(Cl)cc2)CC1 (configuration not stated)
